Assay results from patent US10934315B2, “Process for preparing bortezomib, intermediates, and crystalline forms thereof” (PHARMACORE BIOTECH CO., LTD., priority 2018, dated 2021).

Assay: Stability test of crystalline form D of bortezomib in a sealed state at 0-10° C.
Assay type: physicochemical
Conditions: for Purity (%): HPLC purity
Experimental: The crystalline form of bortezomib prepared in Example 2 was subjected to a stability test in a sealed state at a temperature of 0-10° C. for 3.5 months.

CC(C)C[C@H](NC(=O)[C@H](Cc1ccccc1)NC(=O)c1cnccn1)B(O)O [Form D of Formula V, [(1R)-3-methyl-1-[[(2S)-1-oxo-3-phenyl-2-[(pyrazinylcarbonyl)amino]propyl]amino]butyl] boronic acid]
(S, S) and (R, R) diastereomer (%) (1 month): 0.046%
(S, S) and (R, R) diastereomer (%) (1 week): 0.068%
(S, S) and (R, R) diastereomer (%) (2 month): 0.039%
(S, S) and (R, R) diastereomer (%) (2 week): 0.042%
(S, S) and (R, R) diastereomer (%) (3.5 month): 0.048%
Stability (HPLC purity and crystalline form) (3.5 months): maintained in a stable state without any change in HPLC purity and crystalline form
Purity (%) (1 month): 99.80%
Purity (%) (1 week): 99.61%
Purity (%) (2 month): 99.74%
Purity (%) (2 week): 99.87%
Purity (%) (3.5 month): 99.69%
